Test results published in patent US20150105252A1, “SUBSTITUTED PYRAZOLES AS HERBICIDES” (E I DU PONT DE NEMOURS AND COMPANY, priority 2013, published 2015).

Experiments:
barnyardgrass [1] = assay: Test A preemergence; format: in vivo, Echinochloa crus-galli; conditions: preemergence
Outline: (§1)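 After sowing in a sand–loam mix, pots received compound preemergence by directed soil spray, or postemergence once plants reached the one- to two-leaf stage (2–10 cm). Formulation contained surfactant in a non-phytotoxic solvent. Injury was scored visually after ~10 greenhouse days, 0–100 scale.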

crabgrass, large = assay: Test A postemergence; format: in vivo, Digitaria sanguinalis; conditions: Postemergence
Outline: as §1

velvetleaf [2] = assay: Test A postemergence; format: in vivo, Abutilon theophrasti; conditions: Postemergence
Outline: as §1

corn [3] = assay: Test A postemergence; format: in vivo, Zea mays; conditions: Postemergence
Outline: as §1

blackgrass = assay: Test C preemergence; format: in vivo, Alopecurus myosuroides; conditions: preemergence
Outline: (§2)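 Seeds were sown in a loam soil–sand blend and sprayed preemergence with compounds formulated in a non-phytotoxic solvent mixture containing surfactant. Postemergence plants, grown in peat/vermiculite medium to 2–18 cm (1- to 4-leaf stage), received the same formulation. After 13 to 15 days in a greenhouse, injury was rated visually against controls (0 = no effect, 100 = complete control).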

ryegrass, Italian = assay: Test C preemergence; format: in vivo, Lolium multiflorum
Outline: as §2

wheat = assay: Test C preemergence; format: in vivo, Triticum aestivum
Outline: as §2

galium = assay: Test C preemergence; format: in vivo, Galium aparine
Outline: as §2

corn [4] = assay: Test C preemergence; format: in vivo, Zea mays
Outline: as §2

johnsongrass = assay: Test C preemergence; format: in vivo, Sorghum halepense
Outline: as §2

pigweed = assay: Test C preemergence; format: in vivo, Amaranthus retroflexus
Outline: as §2

soybean = assay: Test C preemergence; format: in vivo, Glycine max
Outline: as §2

barnyardgrass [5] = assay: Test C preemergence; format: in vivo, Echinochloa crus-galli; conditions: preemergence
Outline: as §2

oilseed rape = assay: Test C preemergence; format: in vivo, Brassica napus
Outline: as §2

velvetleaf [6] = assay: Test C preemergence; format: in vivo, Abutilon theophrasti
Outline: as §2

[7] = 125 g ai/ha, 0 to 100 scale, 0 no effect, 100 complete control
[8] = 500 g ai/ha, 0 to 100 scale (0 no effect, 100 complete control)
[9] = 31 g ai/ha, visual rating, scale 0 to 100 (0 no effect, 100 complete control), 13 to 15 days
[10] = 62 g ai/ha, scale 0 to 100 (0 no effect, 100 complete control), 13 to 15 days
[11] = 125 g ai/ha, 13 to 15 days, scale 0 to 100, 0 = no effect, 100 = complete control
[12] = 250 g ai/ha, scale 0 to 100, 0 is no effect, 100 is complete control
[13] = Preemergence, rate head not shown (block before 16 g ai/ha), scale 0 to 100
[14] = preemergence, 62 g ai/ha, scale 0 to 100 (0 no effect, 100 complete control), 13 to 15 days
[15] = preemergence, 125 g ai/ha, 13 to 15 days, scale 0 to 100, 0 = no effect, 100 = complete control
[16] = preemergence, 250 g ai/ha, scale 0 to 100, 0 is no effect, 100 is complete control

CCc1cc(C(=O)NC2CC2)nn1Cc1cc(C(F)(F)C(F)(F)F)nn1C [Compound 226]
Barnyardgrass plant response rating (0 to 100 scale, 0 is no effect, 100 is complete control) (barnyardgrass [1]; 125 g ai/ha, visual injury approx. 10 days after treatment): 80
Barnyardgrass plant response rating (barnyardgrass [1]; 500 g ai/ha, visual injury after approx. 10 days, 0 to 100 scale (0 no effect, 100 complete control)): 100
Crabgrass, Large plant response rating (crabgrass, large; [7]): 70
Crabgrass, Large plant response rating (crabgrass, large; [8]): 90
Velvetleaf plant response rating (velvetleaf [2]; [7]): 50
Velvetleaf plant response rating (velvetleaf [2]; [8]): 90
Corn plant response rating (corn [3]; [7]): 50
Corn plant response rating (corn [3]; [8]): 80
Blackgrass plant response rating (blackgrass; [9]): 60
Blackgrass plant response rating (blackgrass; [10]): 85
Plant response rating, Blackgrass (blackgrass; [11]): 70
Blackgrass plant response rating (blackgrass; [12]): 90
Plant response rating, Ryegrass, Italian (ryegrass, Italian; [13]): 0
Ryegrass, Italian plant response rating (ryegrass, Italian; [14]): 5
Plant response rating, Ryegrass, Italian (ryegrass, Italian; [15]): 35
Ryegrass, Italian plant response rating (ryegrass, Italian; [16]): 80
Plant response rating, Wheat (wheat; [13]): 15
Wheat plant response rating (wheat; [14]): 0
Plant response rating, Wheat (wheat; [15]): 0
Wheat plant response rating (wheat; [16]): 10
Plant response rating, Galium (galium; [13]): 0
Galium plant response rating (galium; [14]): 90
Plant response rating, Galium (galium; [15]): 80
Galium plant response rating (galium; [16]): 90
Plant response rating, Corn (corn [4]; Preemergence, rate head not shown (block before 16 g ai/ha), scale 0 to 100, 100 is complete control): 10
Corn plant response rating (corn [4]; [14]): 15
Plant response rating, Corn (corn [4]; [15]): 30
Corn plant response rating (corn [4]; [16]): 70
Plant response rating, Johnsongrass (johnsongrass; [13]): 10
Johnsongrass plant response rating (johnsongrass; [14]): 55
Plant response rating, Johnsongrass (johnsongrass; [15]): 100
Johnsongrass plant response rating (johnsongrass; [16]): 85
Plant response rating, Pigweed (pigweed; [13]): 100
Pigweed plant response rating (pigweed; [14]): 100
Plant response rating, Pigweed (pigweed; [15]): 100
Pigweed plant response rating (pigweed; [16]): 100
Plant response rating, Soybean (soybean; [13]): 10
Soybean plant response rating (soybean; [14]): 70
Plant response rating, Soybean (soybean; [15]): 95
Soybean plant response rating (soybean; [16]): 100
Barnyardgrass plant response rating (barnyardgrass [5]; [9]): 10
Barnyardgrass plant response rating (barnyardgrass [5]; [10]): 65
Plant response rating, Barnyardgrass (barnyardgrass [5]; [11]): 95
Barnyardgrass plant response rating (barnyardgrass [5]; [12]): 100
Plant response rating, Oilseed Rape (oilseed rape; [13]): 30
Oilseed Rape plant response rating (oilseed rape; [14]): 85
Plant response rating, Oilseed Rape (oilseed rape; [15]): 100
Oilseed Rape plant response rating (oilseed rape; [16]): 95
Plant response rating, Velvetleaf (velvetleaf [6]; [13]): 25
Velvetleaf plant response rating (velvetleaf [6]; [14]): 80
Plant response rating, Velvetleaf (velvetleaf [6]; [15]): 100
Velvetleaf plant response rating (velvetleaf [6]; [16]): 100
